Assays:
Type in all cases: in vivo
[1] = test system: Echinochloa crus-galli (ECHCG); experiment: A. Herbicidal pre-emergence efficacy, ECHCG; settings: 1280 g/ha; scored visually after about 3 weeks vs untreated controls
Source text: (§1) Seeds of mono- and dicotyledonous weed plants were placed in plastic pots in sandy loam soil (doubly sown with one species each of mono- or dicotyledonous weed plants per pot) and covered with soil. The compounds of the invention, formulated in the form of wettable powders (WP) or as emulsion concentrates (EC), were then applied onto the surface of the covering soil as aqueous suspension or emulsion with addition of 0.5% additive at a water application rate of 600 liters per hectare (converted). After the treatment, the pots were placed in a greenhouse and kept under good growth conditions for the test plants. After about 3 weeks, the efficacy of the preparations was scored visually in comparison with untreated controls as percentages.
(§2) For example, • 100% efficacy=plants have died, • 0% efficacy=like untreated control plants.
(§3) Tables A1a to A12c below show the effects of selected compounds of the general formula (I) according to table 1 on various harmful plants at an application rate corresponding to 1280 g/ha or less, which were obtained by the experimental procedure mentioned above.

[2] = test system: Veronica persica (VERPE); experiment: A. Herbicidal pre-emergence efficacy, VERPE
Source text: as §1, §2, §3

[3] = test system: Kochia scoparia (KCHSC); experiment: B. Herbicidal post-emergence efficacy, KCHSC; settings: for Post-emergence efficacy against KCHSC in %: rated visually after about 3 weeks; for Post-emergence efficacy against KCHSC: 1280 g/ha
Procedure: (§4) Seeds of mono- and dicotyledonous weed plants were placed in plastic pots in sandy loam soil (doubly sown with in each case one species of mono- or dicotyledonous weed plants per pot), covered with soil and cultivated in a greenhouse under controlled growth conditions. 2 to 3 weeks after sowing, the test plants were treated at the one-leaf stage. The compounds of the invention, formulated in the form of wettable powders (WP) or as emulsion concentrates (EC), were applied onto the green parts of the plants as aqueous suspension or emulsion with addition of 0.5% additive at a water application rate of 600 liters per hectare (converted). After the test plants had been kept in the greenhouse under optimum growth conditions for about 3 weeks, the activity of the preparations was rated visually in comparison to untreated controls.
(§5) For example, • 100% efficacy=plants have died, • 0% efficacy=like untreated control plants
(§6) Tables B1a to B12c below show the effects of selected inventive compounds of the general formula (I) according to table 1 on various harmful plants at an application rate corresponding to 1280 g/ha or less, which were obtained by the experimental procedure mentioned above.

[4] = test system: Abutilon theophrasti (ABUTH); experiment: A. Herbicidal pre-emergence efficacy, ABUTH; settings: 1280 g/ha; scored visually after about 3 weeks vs untreated controls
Source text: as §1, §2, §3

[5] = test system: Amaranthus retroflexus (AMARE); experiment: B. Herbicidal post-emergence efficacy, AMARE
Procedure: as §4, §5, §6

[6] = test system: Setaria viridis (SETVI); experiment: A. Herbicidal pre-emergence efficacy, SETVI
Source text: as §1, §2, §3

[7] = test system: Poa annua (POAAN); experiment: A. Herbicidal pre-emergence efficacy, POAAN
Source text: as §1, §2, §3

[8] = test system: Abutilon theophrasti (ABUTH); experiment: B. Herbicidal post-emergence efficacy, ABUTH; settings: rated visually after about 3 weeks
Procedure: as §4, §5, §6

[9] = test system: Kochia scoparia (KCHSC); experiment: A. Herbicidal pre-emergence efficacy, KCHSC; settings: pre-emergence
Source text: as §1, §2, §3

[10] = test system: Digitaria sanguinalis (DIGSA); experiment: B. Herbicidal post-emergence efficacy, DIGSA; settings: rated visually after about 3 weeks
Procedure: as §4, §5, §6

[11] = test system: Digitaria sanguinalis (DIGSA); experiment: A. Herbicidal pre-emergence efficacy, DIGSA; settings: scored visually after about 3 weeks vs untreated controls
Source text: as §1, §2, §3

[12] = test system: Amaranthus retroflexus (AMARE); experiment: A. Herbicidal pre-emergence efficacy, AMARE
Source text: as §1, §2, §3

[13] = test system: Poa annua (POAAN); experiment: B. Herbicidal post-emergence efficacy, POAAN
Procedure: as §4, §5, §6

[14] = test system: Veronica persica (VERPE); experiment: B. Herbicidal post-emergence efficacy, VERPE
Procedure: as §4, §5, §6

[15] = test system: Stellaria media (STEME); experiment: B. Herbicidal post-emergence efficacy, STEME
Procedure: as §4, §5, §6

[16] = test system: Stellaria media (STEME); experiment: A. Herbicidal pre-emergence efficacy, STEME
Source text: as §1, §2, §3

[17] = test system: Echinochloa crus-galli (ECHCG); experiment: B. Herbicidal post-emergence efficacy, ECHCG; settings: 1280 g/ha, rated visually after about 3 weeks
Procedure: as §4, §5, §6

[18] = test system: Setaria viridis (SETVI); experiment: B. Herbicidal post-emergence efficacy, SETVI; settings: 1280 g/ha
Procedure: as §4, §5, §6

Row | SMILES | Pre-emergence efficacy against ECHCG [1] | Pre-emergence efficacy against VERPE in % ([2]; 320 g/ha) | Pre-emergence efficacy against VERPE in % ([2]; 1280 g/ha) | Post-emergence efficacy against KCHSC in % ([3]; 320 g/ha) | Post-emergence efficacy against KCHSC [3] | Pre-emergence efficacy against ABUTH [4] | Post-emergence efficacy against AMARE ([5]; 80 g/ha) | Post-emergence efficacy against AMARE ([5]; 320 g/ha) | Post-emergence efficacy against AMARE ([5]; 1280 g/ha) | Pre-emergence efficacy against SETVI ([6]; dosage 320 g/ha) | Pre-emergence efficacy against SETVI ([6]; dosage 1280 g/ha) | Pre-emergence efficacy against POAAN ([7]; dosage 1280 g/ha) | Post-emergence efficacy against ABUTH in % ([8]; 320 g/ha) | Post-emergence efficacy against ABUTH in % ([8]; 1280 g/ha) | Pre-emergence efficacy against KCHSC ([9]; dosage 320 g/ha) | Pre-emergence efficacy against KCHSC ([9]; dosage 1280 g/ha) | Post-emergence efficacy against DIGSA in % ([10]; 1280 g/ha) | Pre-emergence efficacy against DIGSA ([11]; 320 g/ha) | Pre-emergence efficacy against DIGSA ([11]; 1280 g/ha) | Pre-emergence efficacy against AMARE in % ([12]; 80 g/ha) | further results
1 | O=S(=O)(CC1CC(F)(F)C1)Oc1c(Br)cccc1Oc1ncc(Cl)cn1 [Example I-75] | 100% | 90% | 100% | 100% | 100% | 100% | 100% | 100% | 100% | 90% | 100% | 100% | 90% | 100% | 90% | 100% | 90% | 90% | 100% | 90% | Post-emergence efficacy against KCHSC in % ([3]; 80 g/ha): 90%; Pre-emergence efficacy against POAAN ([7]; dosage 320 g/ha): 100%; Post-emergence efficacy against ABUTH in % ([8]; 80 g/ha): 90%; Pre-emergence efficacy against AMARE in % ([12]; 320 g/ha): 90%; Pre-emergence efficacy against AMARE in % ([12]; 1280 g/ha): 100%; Post-emergence efficacy against POAAN ([13]; 320 g/ha): 90%; Post-emergence efficacy against POAAN ([13]; 1280 g/ha): 90%; Post-emergence efficacy against VERPE ([14]; 80 g/ha): 100%; Post-emergence efficacy against VERPE ([14]; 320 g/ha): 100%; Post-emergence efficacy against VERPE ([14]; 1280 g/ha): 100%; Post-emergence efficacy against STEME ([15]; 320 g/ha): 100%; Post-emergence efficacy against STEME ([15]; 1280 g/ha): 100%; Pre-emergence efficacy against STEME ([16]; dosage 320 g/ha): 100%; Pre-emergence efficacy against STEME ([16]; dosage 1280 g/ha): 100%; Post-emergence efficacy against ECHCG in % [17]: 90%
2 | N#Cc1cccc(Oc2ncc(Cl)cn2)c1OS(=O)(=O)CC1CC(F)(F)C1 [Example I-79] | 90% | 100% | 100% | 100% | 100% | 90% | 90% | 100% | 100% | 90% | 100% | 90% | 90% | 100% | 90% | 100% | 100% | 100% | 100% | 90% | Post-emergence efficacy against SETVI [18]: 90%; Post-emergence efficacy against KCHSC in % ([3]; 80 g/ha): 90%; Post-emergence efficacy against DIGSA in % ([10]; 320 g/ha): 90%; Pre-emergence efficacy against AMARE in % ([12]; 320 g/ha): 100%; Pre-emergence efficacy against AMARE in % ([12]; 1280 g/ha): 100%; Post-emergence efficacy against VERPE ([14]; 80 g/ha): 100%; Post-emergence efficacy against VERPE ([14]; 320 g/ha): 100%; Post-emergence efficacy against VERPE ([14]; 1280 g/ha): 100%; Post-emergence efficacy against STEME ([15]; 80 g/ha): 90%; Post-emergence efficacy against STEME ([15]; 320 g/ha): 100%; Post-emergence efficacy against STEME ([15]; 1280 g/ha): 100%; Pre-emergence efficacy against STEME ([16]; dosage 320 g/ha): 90%; Pre-emergence efficacy against STEME ([16]; dosage 1280 g/ha): 100%; Post-emergence efficacy against ECHCG in % [17]: 100%
3 | N#Cc1cccc(Oc2ncc(Cl)cn2)c1OS(=O)(=O)CCCCl [Example I-80] | 90% | 90% | 100% | 90% | 90% | 90% | 100% | 100% | 100% | 90% | 100% | 90% | 90% | 100% | 90% | 100% | 90% | 90% | 100% | 90% | Post-emergence efficacy against SETVI [18]: 90%; Pre-emergence efficacy against POAAN ([7]; dosage 320 g/ha): 90%; Post-emergence efficacy against ABUTH in % ([8]; 80 g/ha): 90%; Pre-emergence efficacy against AMARE in % ([12]; 320 g/ha): 90%; Pre-emergence efficacy against AMARE in % ([12]; 1280 g/ha): 100%; Post-emergence efficacy against POAAN ([13]; 1280 g/ha): 90%; Post-emergence efficacy against VERPE ([14]; 80 g/ha): 90%; Post-emergence efficacy against VERPE ([14]; 320 g/ha): 90%; Post-emergence efficacy against VERPE ([14]; 1280 g/ha): 100%; Post-emergence efficacy against STEME ([15]; 80 g/ha): 90%; Post-emergence efficacy against STEME ([15]; 320 g/ha): 100%; Post-emergence efficacy against STEME ([15]; 1280 g/ha): 100%; Pre-emergence efficacy against STEME ([16]; dosage 320 g/ha): 100%; Pre-emergence efficacy against STEME ([16]; dosage 1280 g/ha): 100%; Post-emergence efficacy against ECHCG in % [17]: 100%

Reference: patent US20240174618A1, “SUBSTITUTED (2-HETEROARYLOXYPHENYL)SULFONATES, SALTS THEREOF AND THEIR USE AS HERBICIDAL AGENTS” (Bayer Aktiengesellschaft, priority 2021, published 2024)
